Six compounds from ChEMBL document CHEMBL5465560, “Selectivity Literature for EUbOPEN Chemogenomic Library” (2024) can be followed below.

The subject of assay [1] is Tyrosine-protein kinase ABL1 (Homo sapiens), P00519 [H396P]. The note with it: at 10 µM.
In assay [2] the target is Vasopressin V1a receptor (Homo sapiens) (UniProt P37288). Nature of the assay: Selectivity interaction (Panel of non-epigenetic targets (kinases, GPCRs, ion channels, and transporters, Eurofins) ) EUB0000271b AVPR1A. The following applies: at 1 µM.
Sequence of Vasopressin V1a receptor (Homo sapiens) (P37288 whole entry, looked up): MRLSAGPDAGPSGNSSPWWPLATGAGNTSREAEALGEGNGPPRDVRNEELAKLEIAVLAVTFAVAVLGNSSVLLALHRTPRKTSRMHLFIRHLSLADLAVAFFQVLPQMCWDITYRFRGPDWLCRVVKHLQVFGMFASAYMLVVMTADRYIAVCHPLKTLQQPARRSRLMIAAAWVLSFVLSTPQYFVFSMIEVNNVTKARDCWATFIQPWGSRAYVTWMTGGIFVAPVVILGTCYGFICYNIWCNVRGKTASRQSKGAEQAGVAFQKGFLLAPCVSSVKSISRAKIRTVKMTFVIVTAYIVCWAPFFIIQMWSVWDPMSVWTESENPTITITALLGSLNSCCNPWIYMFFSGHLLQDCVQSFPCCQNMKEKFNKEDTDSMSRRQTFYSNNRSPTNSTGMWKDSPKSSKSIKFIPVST
In assay [3] the target is T1, Ephrin type-A receptor 8 (Homo sapiens) (UniProt P29322).
T1 sequence (whole entry): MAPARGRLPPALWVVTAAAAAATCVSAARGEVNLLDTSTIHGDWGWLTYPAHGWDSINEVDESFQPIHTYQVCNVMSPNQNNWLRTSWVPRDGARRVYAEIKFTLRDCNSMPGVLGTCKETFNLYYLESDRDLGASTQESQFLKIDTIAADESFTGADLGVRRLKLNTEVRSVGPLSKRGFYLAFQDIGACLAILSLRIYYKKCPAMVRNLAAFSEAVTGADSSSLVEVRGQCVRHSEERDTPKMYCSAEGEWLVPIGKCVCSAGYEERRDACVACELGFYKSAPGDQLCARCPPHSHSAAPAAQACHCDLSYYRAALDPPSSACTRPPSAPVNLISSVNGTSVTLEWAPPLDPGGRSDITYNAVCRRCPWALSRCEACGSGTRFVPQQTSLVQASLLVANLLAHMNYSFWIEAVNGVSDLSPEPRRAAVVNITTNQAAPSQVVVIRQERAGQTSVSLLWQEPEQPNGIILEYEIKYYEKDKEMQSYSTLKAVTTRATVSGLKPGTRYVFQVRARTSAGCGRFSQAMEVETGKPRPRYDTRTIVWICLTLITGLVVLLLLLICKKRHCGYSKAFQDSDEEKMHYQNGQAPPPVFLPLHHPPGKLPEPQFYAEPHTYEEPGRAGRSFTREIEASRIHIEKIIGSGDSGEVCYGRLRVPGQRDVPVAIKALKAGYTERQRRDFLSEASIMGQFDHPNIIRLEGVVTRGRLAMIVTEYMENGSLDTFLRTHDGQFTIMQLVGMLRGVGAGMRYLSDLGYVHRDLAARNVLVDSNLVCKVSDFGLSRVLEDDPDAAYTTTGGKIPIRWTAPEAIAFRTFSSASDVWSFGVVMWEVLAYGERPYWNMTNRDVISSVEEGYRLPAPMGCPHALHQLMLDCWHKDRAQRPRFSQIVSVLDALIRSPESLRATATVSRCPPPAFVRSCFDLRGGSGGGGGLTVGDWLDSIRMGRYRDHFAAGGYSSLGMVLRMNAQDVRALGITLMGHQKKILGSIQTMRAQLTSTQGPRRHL
Nature of the assay: Selectivity interaction (KinomeScan (DiscoverX)) EUB0000666a EPHA8. The note with it: at 10 µM.

For assay [4], the target named is Serine/threonine-protein kinase 10 (Homo sapiens) (UniProt O94804). As to the kind of experiment: Selectivity interaction (ActivX KiNativ screen (kinase selectivity in THP-1 cell lysates)) EUB0000639a STK10. It is filed as subcellular. The following applies: lysate, at 0.2 µM.
Sequence of Serine/threonine-protein kinase 10 (Homo sapiens) (O94804 whole entry, looked up): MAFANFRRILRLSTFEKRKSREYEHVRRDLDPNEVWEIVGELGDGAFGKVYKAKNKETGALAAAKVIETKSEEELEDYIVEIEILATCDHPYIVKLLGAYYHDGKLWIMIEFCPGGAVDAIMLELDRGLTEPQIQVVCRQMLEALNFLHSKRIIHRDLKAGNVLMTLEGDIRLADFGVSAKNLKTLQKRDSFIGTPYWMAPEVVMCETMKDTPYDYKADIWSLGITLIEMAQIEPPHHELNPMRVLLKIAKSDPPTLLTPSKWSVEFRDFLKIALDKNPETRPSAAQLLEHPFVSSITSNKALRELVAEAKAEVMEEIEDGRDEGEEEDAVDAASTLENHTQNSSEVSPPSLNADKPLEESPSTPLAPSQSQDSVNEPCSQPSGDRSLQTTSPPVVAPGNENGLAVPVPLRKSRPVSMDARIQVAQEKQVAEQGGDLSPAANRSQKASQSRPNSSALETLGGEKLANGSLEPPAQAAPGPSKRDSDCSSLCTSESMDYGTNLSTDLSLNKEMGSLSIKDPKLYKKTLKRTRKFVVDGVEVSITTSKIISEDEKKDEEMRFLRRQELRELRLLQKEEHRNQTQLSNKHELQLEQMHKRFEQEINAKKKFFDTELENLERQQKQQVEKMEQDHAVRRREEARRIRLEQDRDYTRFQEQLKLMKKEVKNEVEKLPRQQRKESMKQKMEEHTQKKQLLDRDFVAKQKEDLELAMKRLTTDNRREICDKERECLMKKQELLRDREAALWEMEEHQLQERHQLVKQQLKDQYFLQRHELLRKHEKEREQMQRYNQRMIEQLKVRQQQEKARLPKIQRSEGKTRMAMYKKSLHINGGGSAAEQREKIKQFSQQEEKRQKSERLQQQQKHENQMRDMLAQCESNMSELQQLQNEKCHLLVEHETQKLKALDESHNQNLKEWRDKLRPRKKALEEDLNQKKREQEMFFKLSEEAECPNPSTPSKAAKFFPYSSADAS
Assay [5] has as its target T2, Serine/threonine-protein kinase D1 (Homo sapiens) (UniProt Q15139).
T2 sequence (whole entry): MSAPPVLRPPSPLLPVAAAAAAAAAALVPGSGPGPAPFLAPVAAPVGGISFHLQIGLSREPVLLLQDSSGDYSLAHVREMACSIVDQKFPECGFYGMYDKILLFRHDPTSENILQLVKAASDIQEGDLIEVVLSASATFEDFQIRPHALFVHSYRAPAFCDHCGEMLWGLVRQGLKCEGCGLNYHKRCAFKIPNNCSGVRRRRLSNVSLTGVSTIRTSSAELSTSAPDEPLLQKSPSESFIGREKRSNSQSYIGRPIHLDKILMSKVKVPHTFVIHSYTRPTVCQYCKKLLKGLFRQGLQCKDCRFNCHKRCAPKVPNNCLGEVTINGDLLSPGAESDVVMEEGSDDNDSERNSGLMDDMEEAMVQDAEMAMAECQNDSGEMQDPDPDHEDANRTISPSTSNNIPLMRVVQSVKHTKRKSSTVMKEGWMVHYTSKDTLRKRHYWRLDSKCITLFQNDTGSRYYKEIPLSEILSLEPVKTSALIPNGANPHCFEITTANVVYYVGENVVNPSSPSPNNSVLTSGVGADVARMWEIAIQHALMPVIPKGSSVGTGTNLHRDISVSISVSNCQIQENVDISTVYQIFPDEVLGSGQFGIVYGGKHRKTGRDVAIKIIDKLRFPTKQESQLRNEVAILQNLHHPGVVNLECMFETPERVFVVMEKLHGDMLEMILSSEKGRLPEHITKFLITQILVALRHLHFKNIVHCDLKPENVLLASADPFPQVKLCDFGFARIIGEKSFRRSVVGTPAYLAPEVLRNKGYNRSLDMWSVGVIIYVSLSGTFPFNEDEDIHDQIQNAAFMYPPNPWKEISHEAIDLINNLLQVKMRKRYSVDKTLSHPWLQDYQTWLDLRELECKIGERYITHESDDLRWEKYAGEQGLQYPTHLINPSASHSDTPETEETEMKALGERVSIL
The note with it: at 10 µM.

Assay [6] deals with Ribosomal protein S6 kinase alpha-2 (Homo sapiens) (UniProt Q15349). As to the kind of experiment: Selectivity interaction (KinomeScan (DiscoverX)) EUB0001619a RPS6KA2. The note with it: at 1 µM.
Sequence of Ribosomal protein S6 kinase alpha-2 (Homo sapiens) (Q15349 whole entry): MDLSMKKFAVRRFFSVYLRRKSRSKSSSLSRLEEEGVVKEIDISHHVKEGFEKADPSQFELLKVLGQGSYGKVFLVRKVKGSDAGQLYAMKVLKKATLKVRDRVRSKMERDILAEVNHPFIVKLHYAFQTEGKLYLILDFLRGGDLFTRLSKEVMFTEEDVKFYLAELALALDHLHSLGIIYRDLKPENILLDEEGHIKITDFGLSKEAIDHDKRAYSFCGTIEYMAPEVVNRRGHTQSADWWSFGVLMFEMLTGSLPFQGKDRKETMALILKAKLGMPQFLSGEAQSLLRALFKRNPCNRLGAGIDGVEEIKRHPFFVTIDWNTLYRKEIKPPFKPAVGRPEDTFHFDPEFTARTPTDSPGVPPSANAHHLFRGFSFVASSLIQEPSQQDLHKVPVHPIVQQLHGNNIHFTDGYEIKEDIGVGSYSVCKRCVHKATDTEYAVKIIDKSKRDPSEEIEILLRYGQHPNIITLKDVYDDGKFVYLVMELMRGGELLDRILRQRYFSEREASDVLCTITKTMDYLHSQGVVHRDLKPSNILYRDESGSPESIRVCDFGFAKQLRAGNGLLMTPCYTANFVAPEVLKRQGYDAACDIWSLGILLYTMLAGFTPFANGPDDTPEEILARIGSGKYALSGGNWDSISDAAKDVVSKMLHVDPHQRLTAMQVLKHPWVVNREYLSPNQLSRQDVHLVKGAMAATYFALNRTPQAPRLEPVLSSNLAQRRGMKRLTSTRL

In turn, `Cc1cc([C@@H](C)Nc2ccccc2C(=O)O)c2nc(N3CCOCC3)cc(=O)n2c1` [AZD-6482] came in with a % of control in assay [1] of 87%. Consider `Cc1cc(C)cc([C@@H]2c3cc(C)ccc3NC(=O)CN2C(=O)c2ccc(Br)s2)c1`, for which the % of inhibition in assay [2] is -5%. The compound `O=C(NOC[C@H](O)CO)c1ccc(F)c(F)c1Nc1ccc(I)cc1F` came in with a % of control in assay [3] of 94%.

On to `CC[C@@H]1[C@H](F)C(=O)N[C@@H]1COc1nccc2cc(C(N)=O)c(OC)cc12` [ZIMLOVISERTIB], for which the % of inhibition in assay [4] is -43.2%. Turning to `COCC(=O)NC/C=C/c1ccc2ncnc(Nc3ccc(Oc4ccc(C)nc4)c(C)c3)c2c1` [CP-724714], the % of control in assay [5] amounted to 85%.

The compound `N#Cc1cccc(-c2c[nH]c3ncnc(N4CCOCC4)c23)c1` displayed a % of control in assay [6] of 100%.
